What was measured:
[1] = tested on: human PASMCs from PAH patients; test: Cell proliferation assay (MTS), serum-induced growth; assay type: cell-based
Procedure: Primary cell lines of distal PASMCs from PAH patients were derived from explanted lungs as previously described (Falcetti et al., 2010; Bubb et al., 2014). These cells have an abnormal proliferative capacity when grown in culture (Zhang et al., 2007; Falcetti et al., 2010). Frozen cells were revived and grown in human smooth muscle basal medium-2 (SMBM; Lonza, Slough, UK) supplemented with 9% fetal bovine serum (FBS) at 37° C. in a humidified atmosphere of 5% CO2. After reaching confluence, cells were washed with phosphate-buffered saline (PBS) and treated with trypsin-EDTA for further passage. Only cells between passages 3 and 10 were used for experiments.
Comparative concentration-dependent effects of IP receptor agonists on cell proliferation were assessed on human PASMCs derived from PAH patients. Cells were seeded onto 96-well plates at a density of 1×10^4 cells/ml and grown at 37° C. in a humidified CO2 incubator in human smooth muscle basal medium-2 (SMBM; Lonza) containing 9% FBS and penicillin-streptomycin (Pen/Strep; 50 units/ml). After 24 hours, cells were growth arrested by incubating for 48 hours in fresh media containing no added serum. Media was then subsequently removed, replaced with human SMBM containing 9% serum with or without 0.1% DMSO in the absence and presence of the IP receptor agonist (either ralinepag, iloprost, treprostinil or MRE-269) and cells treated with the IP receptor agonist for 4 days over the concentration range ([…]). Responses were directly compared in cells containing the IP receptor antagonist, RO-1138452 (1 μM), which was added to cells 30-60 minutes prior to the addition of the IP agonist and remained throughout the experiment. Cells incubated with no added serum over the same time period (4 days) acted as the time control.
Cell proliferation was obtained using an MTS proliferation kit (Promega), a colorimetric method for determining the number of viable cells which is based on the cleavage of the tetrazolium salt MTS to formazan by cellular mitochondrial dehydrogenases. An increase in cell number leads to a proportional increase in the amount of formazan dye formed which is quantified by measuring the absorbance of the dye solution at 490 nm. In each case background absorbance was corrected by subtracting the average absorbance from the “no cell” control wells from all other absorbance values.
Cell proliferation was then normalized to the growth response induced by FBS alone, which was taken as the FBS response minus the time control (=100% growth at 4 days). Growth responses induced in presence of solvent±drugs is shown as % change in cell proliferation relative to the FBS response alone in all figures.
All data are presented as mean±standard error of mean (S.E.M) of at least 5 observations. Agonist log-concentration curves were constructed and fitted using the non-linear fitting routine in GraphPad Prism 4 or 6 (San Diego, Calif., USA). The concentration of agonist causing 50% of the maximal response (Emax) was expressed as the negative log (pEC50) and the mean EC50 calculated. P values <0.05 are considered statistically significant.

[2] = tested on: human PASMCs from PAH patients; test: Cyclic AMP assay; assay type: cell-based
Procedure: Human PASMCs from PAH patients were grown to 70-80% confluence in 12 well plates in DMEM/F12 containing 9% foetal bovine serum (FBS), penicillin (50 U/ml)/streptomycin (50 ag/ml). To assess the time-course of cAMP elevation, cells were stimulated with 100 nM ralinepag for varying times (0.5, 1, 2, 4, 8, 24, 48 hours). This dose of ralinepag was chosen on the basis that it was close to the EC50 for cAMP generation in preliminary experiments. In other experiments, the IP receptor agonist was added for a specified time (60 minutes) over a full concentration range (0.1-10,000 nM) in the absence and presence of […] of the IP receptor antagonist, RO-1138452. The antagonist is added 30 minutes beforehand and remained throughout.
To extract cyclic AMP, the medium was aspirated and PASMCs cells incubated in 0.1 M HCl for 20 minutes on ice followed by centrifugation at 1000 g for 10 minutes at 4° C. The protein concentration in the supernatant was determined using a […] protein assay (BCA, Novagen, EmD Chemicals, CA, USA). Intracellular cyclic AMP was measured using a competitive enzyme immunoassay 96 well plate kit (ADI-900-163, Enzo Life Sciences, Exeter, UK) and the assay performed according to the manufacturer's instructions. Each sample was run in duplicate and data expressed as pmol of cAMP per mg of total protein for each individual sample. Basal levels were subtracted from each agonist concentration data point. Given the large variation (˜15-fold) in cAMP generation from different patient samples, data was also normalized to the peak cyclic AMP response (assigned 100%) in each cell isolate.

[3] = Half-life in vivo; conditions: irrespective of the dose
[4] = 22-week randomized, double-blind, placebo-controlled clinical trial; assay type: in vivo, patients
Procedure: A 22-week randomized, double-blind, placebo-controlled study with a dose titration period of up to 9 weeks was conducted. Sixty-one patients were randomized 2:1 ralinepag to placebo. Right Heart Catheterization (RHC) measurements were obtained prior to study Day 1 of the dose titration period and at Week 22. The following values were obtained and recorded: pulmonary artery pressure (PAP) (systolic, diastolic, and mean), heart rate (HR), right atrial pressure (RAP), pulmonary capillary wedge pressure (PCWP) right ventricular pressure (RVP) and cardiac output (CO), pulmonary vascular resistance (PVR), arterial and mixed venous oxygen saturation (FiO2) (if applicable). Systemic vascular resistance (SVR) was estimated from blood pressure measurements. All patients were receiving background PAH treatment with an endothelin receptor antagonist, phosphodiesterase type-5-inhibitor, or soluble guanylate cyclase activator, alone or in combination.
The primary efficacy endpoint for the study was change from baseline in PVR after 22 weeks of treatment. Additional analyses included change from baseline in 6 MWD after 22 weeks of treatment, hemodynamics, and safety and tolerability. Ralinepag was administered as a capsule in 0.01, 0.02, 0.03, 0.04, and 0.10 mg dose strengths.
The starting dose of ralinepag was 0.01 mg twice daily. The dose of ralinepag was titrated according to patient tolerability. If the initial dose was tolerated (0.01 mg twice daily), then the dose was increased once a week in the following fashion: 0.02 mg twice daily, 0.03 mg twice daily, 0.04 mg twice daily, 0.06 mg twice daily, 0.08 mg, 0.1 mg twice daily, 0.2 mg twice daily and 0.3 mg twice daily. The dose was optionally escalated to a possible maximum total daily dose of 0.6 mg (0.3 mg twice daily), pending tolerability.

O=C(O)COC[C@H]1CC[C@H](COC(=O)N(c2ccccc2)c2ccc(Cl)cc2)CC1 [ralinepag, 2-(((1r,4r)-4-(((4-chlorophenyl)(phenyl)carbamoyloxy)methyl)cyclohexyl)methoxy)acetic acid]
inhibition at 0.001 µM ([1]; Homo sapiens, PASMC, 1 nM ralinepag alone): 14% | inhibition at 0.01 µM ([1]; Homo sapiens, PASMC, 10 nM ralinepag in the presence of 100 nM bosentan): 21% | inhibition at 10 µM ([1]; Homo sapiens, PASMC, 10 μM ralinepag alone (highest dose tested)): 50% | inhibition at 0.1 µM ([1]; Homo sapiens, PASMC, 96 h, drug alone at 100 nM, compared to FBS and DMSO, 4 days): 28% | EC50 ([1]; Homo sapiens, PASMC, 96 h, ralinepag alone or + 100 nM drug, from individual fits, 9% FBS + 0.1% DMSO, 4 days): 25 nM | EC50 ([1]; Homo sapiens, PASMC, ralinepag in the presence of 100 nM riociguat, individual fits): 10 nM | antiproliferative response in the presence of an IP receptor antagonist ([1]; IP receptor antagonist RO-1138452 (1 μM)): completely inhibited | maximal effect compared with treprostinil ([1]; cell proliferation assay): weaker maximal effects | fold lower dose of ralinepag inhibiting cell proliferation ([1]; combined with 100 nM macitentan vs ralinepag alone): 10 fold | IP receptor dependence of the effect ([1]; cyclic AMP and cell proliferation assays in human PASMCs from PAH patients): selective IP receptor agonists | dose of ralinepag at which significant inhibition of cell growth occurred ([1]; in the presence of 100 nM riociguat): 10 pM | potency enhancement ([1]; in the presence of 100 nM sildenafil, mean fits (Table 2)): 8 fold | antiproliferative effect compared to ralinepag alone ([1]; in the presence of 100 nM treprostinil, entire concentration range, mean data): more effective in the presence of treprostinil | fold more antiproliferation effects than MRE-269 ([1]; ralinepag vs MRE-269): 10 fold | EC50 ([2]; Homo sapiens, PASMC, preliminary experiments, read-out: EC50 for cAMP generation): ~100 nM | maximal effect compared with treprostinil ([2]; cyclic AMP assay): weaker maximal effects | fold more cyclic AMP than MRE-269 ([2]; ralinepag vs MRE-269): 2 fold | plasma half-life [3]: relatively long plasma half-life | 6-minute walk distance (6MWD) ([4]; after 22 weeks): numerical improvement | change from baseline in pulmonary vascular resistance (PVR) ([4]; after 22 weeks, compared to placebo, on background PAH treatment): statistically significant change from baseline | adverse events ([4]; human, in vivo): consistent with other prostacyclin treatments
